From US6893829B2, “Human leukocyte 12-lipoxygenase and its role in the pathogenesis of disease states” (City of Hope, priority 1992, dated 2005)

Columns and labels:
JNK = JNK activity in CHO-AT1a cells; assay type: cell-based, Chinese hamster; details: AII 10^−7M
Procedure: The plasmid pGEX-cJun 1/79 (Dept. Pharmacol. UCSD, La Jolla) is a GST-cJun (1-79) expression vector encoding amino acids (1-79) of cJun. The GST fusion protein expression vector was transformed into E. Coli. Protein was induced with 0.1 mM IPTG and purified by affinity binding to glutathione-agarose beads. Unstimulated or stimulated cells were lysed into WCEB (25 mM HEPES, pH 7.7, 03.M Nacl, 15 mM MgCl2, 02.mM EDTA and 0.1% triton X-100). About 50 μg protein extract was incubated with GST-cJun+GSH agarose overnight at 4° C. Phosphorylation was carried out at 30° C. for 20 minutes in the presence of 20 mM HEPES, pH 7.5, 20 mM b-glycerophosphate, 10 mM p-nitrophenolphosphate, 10 mM MgCl2, 10 mM DDT, 50 μg Na3VO4, 20 μM ATP (cold) and about 0.5 μl of new gamma ^32P-ATP. After boiling with electrophoresis sample buffer, the supernatants were analyzed on 12% SDS-PAGE. JNK activity was also measured by immunoprecipitation method using an anti-JNK antibody (Parmingen Co., San Diego) and then activities were measured using 2 μg of GST-cJun (1-79) as substrate as described in Cell, 81:1147-1157 (1995).
(§1) It has been discovered that the administration of AII results in biphasic activation of MAP kinase (all of the MAP kinase experiments were conducted in CHO-AT1a cells—AII receptor AT1a cDNA transfected Chinese hamster ovary cells).

ERK = ERK activity in CHO-AT1a cells; assay type: cell-based, Chinese hamster; details: AII 10^−7M
Procedure: ERK activity was evaluated by the substrate-SDS-polyacrylamide gel method described in Anal. Biochem., 183:139-143 (1989). Confluent cells in […] were made quiescent in serum-free medium and then treated with agonists for various time periods. The cells were then lysed in lysis buffer (1% NP40, 1% sodium deoxycholate, 0.1% SDS, 100 mM NaCl, 50 mM Tris, 10 mM EDTA, 1 mM EGTA, aprotinin, […], 0.1 mM PMSF and 1 mM sodium orthovanadate, pH 7.4). Lysates were centrifuged to pellet nuclei and the cell extracts ([…]) were subjected to electrophoresis on SDS-polyacrylamide gels (10%) containing myelin basic protein (0.5 mg/ml) as an ERK substrate. The SDS was then washed, followed by denaturation, renaturation and protein phosphorylation on the gel with [^32P] ATP.
as §1

[1] = tested on: leukocyte 12-LO protein in HSMC; experiment: 12-LO protein expression in HSMC (Western immunoblotting); assay type: cell-based, human
Procedure: FIGS. 4A and 4B illustrate the regulation of leukocyte 12-LO protein expression by AII in HSMC. FIG. 4A is an immunoblot showing regulation by AII. FIG. 4B is a bar graph representation of densitometric analysis of immunoblot in FIG. 4A. Cells were grown in medium 199 containing 20% FBS and serum-depleted for 24 hours by placing in medium 199 containing 0.4% FBS and 0.2% BSA. Cells were treated with AII at the concentration of 2×10^−7 mol/L for 24 to 48 hours. Cells were washed with PBS and harvested by scraping. Cell pellets were lysed and cytosol fractions were electrophoresed. […]
SDS polyacrylamide gel electrophoresis (10% running gel, 4% stacking gel) was performed according to the method of Laemmli (24). […] Nonspecific binding was evaluated using normal rabbit serum. Western blots were quantitated using a computerized video densitometer (Applied Imagining, Santa Clara, Calif.; Lynx DNA vision) and values expressed as arbitrary absorbance units.
To examine whether AII induces the 12-LO enzyme expression in HSMC, cells were treated with AII at the concentration of 2×10^−7 mol/L for 24 or 48 hours. […] A distinct band was detected with a molecular weight of nearly 72 kD which is the reported molecular weight of the porcine leukocyte-type of 12-LO (FIG. 4). […]

In the case of “Angiotensin II (DRVYIHPF; Angiotensin-2; UniProt P01019 25-32, looked up) [AII, peptide hormone, added to cells as stimulus]”, the “stimulation of JNK activity” value (JNK) is reported as “peaks at 30 minutes and remains sustained for 1 hour”, the “stimulation of ERK activity, later peak” value (ERK; 3-4.5 hours) is reported as 1.5-3 fold and the “stimulation of ERK activity, first peak” value (ERK; 5 minutes) is reported as 2-6 fold. The “increase in 12-LO protein expression” value ([1]; AII 2×10^−7 mol/L, 24 hour, serum free media) was “seven” and the 12-LO expression induction ([1]; AII, 48 hours, data not shown) was 4-7 fold.
